Counter-ions that a name gives are not always drawn. Like-named read-outs stand apart in the source and are kept apart here.
What was measured:
[1] = molecular target: arginine vasopressin V2 receptor (Oryctolagus cuniculus, UniProt G1TA00); assay: V2 receptor binding assay ([3H]-Arg-vasopressin, rabbit renal medulla membrane); conditions: for Binding activity on arginine vasopressin V2 receptor (pKi): rabbit renal medulla membrane, [3H]-Arg-vasopressin 2 nM; for antagonism on V2 receptor (in words): compared with OPC-31260 and OPC-21268
arginine vasopressin V2 receptor, sequence (G1TA00 78-446): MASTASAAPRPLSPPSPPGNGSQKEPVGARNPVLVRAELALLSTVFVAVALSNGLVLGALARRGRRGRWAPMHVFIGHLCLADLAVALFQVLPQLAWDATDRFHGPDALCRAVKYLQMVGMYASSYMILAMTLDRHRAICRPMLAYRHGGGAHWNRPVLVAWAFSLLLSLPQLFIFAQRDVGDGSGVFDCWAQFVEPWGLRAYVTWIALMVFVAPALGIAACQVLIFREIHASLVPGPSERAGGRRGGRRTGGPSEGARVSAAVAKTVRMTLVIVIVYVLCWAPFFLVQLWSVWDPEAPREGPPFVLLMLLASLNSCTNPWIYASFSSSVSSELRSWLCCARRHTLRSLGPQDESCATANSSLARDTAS

[2] = molecular target: T1, arginine vasopressin V1 receptor (Rattus norvegicus, UniProt P30560); assay: V1 receptor binding assay ([3H]-Arg-vasopressin, rat liver membrane); conditions: for antagonism on V1 receptor (in words): compared with OPC-31260 and OPC-21268; for V1 selectivity (in words): V1 versus V2 receptor binding; for V1 receptor antagonism compared with OPC-21268 (in words): versus OPC-21268
T1 construct: A rat liver membrane sample was prepared; from tissue; host or cells: rat liver membranes
T1 sequence (P30560 whole entry): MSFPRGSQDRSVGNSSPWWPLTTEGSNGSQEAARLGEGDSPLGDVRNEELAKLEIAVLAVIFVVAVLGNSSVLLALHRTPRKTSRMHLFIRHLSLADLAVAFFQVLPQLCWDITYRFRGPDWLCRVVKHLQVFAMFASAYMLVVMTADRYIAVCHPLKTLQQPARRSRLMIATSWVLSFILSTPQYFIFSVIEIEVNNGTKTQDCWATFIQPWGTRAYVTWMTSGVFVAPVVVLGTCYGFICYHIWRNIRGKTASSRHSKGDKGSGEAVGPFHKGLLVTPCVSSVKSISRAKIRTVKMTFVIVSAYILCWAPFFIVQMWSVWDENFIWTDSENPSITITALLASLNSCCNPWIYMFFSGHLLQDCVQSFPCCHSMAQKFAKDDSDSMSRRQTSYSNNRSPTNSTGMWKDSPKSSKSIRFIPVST
Method: (1) V1 receptor binding assay
A rat liver membrane sample was prepared in accordance with the method of Nakamura et al. (J. Biol. Chem., 258, 9283 (1983)), and [^3 H]-Arg-vasopressin (2 nM, specific activity=75.8 Ci/mmol), 70 μg of the membrane sample and each drug to be tested (10^-8 to 10^-4 M) were incubated at 30° C. for 30 minutes in 250 μl of 100 mM Tris-HCl buffer (pH=8.0) containing 5 mM of magnesium chloride, 1 mM of ethylenediaminetetraacetic acid (EDTA) and 0.1% of bovine serum albumin (BSA). Thereafter, the incubation solution was sucked off using a cell harvester and free ligand and excess buffer were removed by passing the reaction mixture through a glass filter (GF/B), thereby trapping receptor-bound labeled ligand on the glass filter. The glass filter was taken out, thoroughly dried and then mixed with a liquid scintillation cocktail, and the amount of the membrane-bound [^3 H]-vasopressin was measured using a liquid scintillation counter to calculate the inhibition ratio by the following formula. [formula] C1 : amount of [^3 H]-vasopressin bound to the membrane in the coexistence of known amount of each drug to be tested and [^3 H]-vasopressin
C0 : amount of [^3 H]-vasopressin bound to the membrane when the drug to be tested was not added
B1 : amount of [^3 H]-vasopressin bound to the membrane in the presence of excess vasopressin (10^-6 M)
[formula] [L]: concentration of radioactive ligand KD: dissociation constant calculated from Scatchard plot
Negative logarithm of the thus calculated Ki value was used as pKi value.

[3] = rat liver membrane, [3H]-Arg-vasopressin 2 nM, 30° C., 30 minutes, pH 8.0, read-out: Binding activity on arginine vasopressin V1 receptor (pKi) (converted)

Row | Structure (SMILES) | Binding activity on arginine vasopressin V2 receptor (pKi) [1] | Ki [2, 3] | antagonism on V2 receptor (in words) [1] | antagonism on V1 receptor (in words) [2] | Ki [2] | V1 selectivity (in words) [2] | V1 receptor antagonism compared with OPC-21268 (in words) [2]
1 | CN(C)CC/C=C1\c2ccccc2N(C(=O)c2ccc(NC(=O)c3ccccc3-c3ccccc3)cc2)CCC1(F)F.Cl [Example 82, (E)-4'-[[4,4-difluoro-5-(3-dimethylaminopropylidene)-2,3,4,5-tetrahydro-1H-1-benzazepin-1-yl]carbonyl]-2-phenylbenzanilide hydrochloride] | 8.13 | 2630 pM |  |  |  |  | 
2 | O=C(/C=C1/c2ccccc2N(C(=O)c2ccc(NC(=O)c3ccccc3-c3ccccc3)cc2)CCC1(F)F)NCc1ccccc1 [Example 127, (Z)-4'-[[4,4-difluoro-5-[(N-benzylcarbamoyl)methylene]-2,3,4,5-tetrahydro-1H-1-benzazepin-1-yl]carbonyl]-2-phenylbenzanilide] | 8.19 | 1740 pM |  |  |  |  | 
3 | O=C(Nc1ccc(C(=O)N2CCC(F)(F)/C(=C\C(=O)N3CCCNCC3)c3ccccc32)cc1)c1ccccc1-c1ccccc1 [Example 28, (Z)-4'-[[[5-[(hexahydro-1,4-diazepin-1-yl)carbonyl]methylene]-4,4-difluoro-2,3,4,5-tetrahydro-1H-1-benzazepin-1-yl]carbonyl]-2-phenylbenzanilide hydrochloride] | 9.37 | 83.2 pM | excellent antagonisms on both V1 and V2 receptors | excellent antagonisms on both V1 and V2 receptors |  |  | 
4 | O=C(Nc1ccc(C(=O)N2CCC(F)(F)/C(=C\C(=O)N3CCC(N4CCCCC4)CC3)c3ccccc32)cc1)c1ccccc1-c1ccccc1 [Example 83, (Z)-4'-[[4,4-difluoro-5-[[(4-piperidinopiperidino)carbonyl]piperidyl)carbamoyl]methylene]-2,3,4,5-tetrahydro-1H-1-benzazepin-1-yl]carbonyl]-2-phenylbenzanilide hydrochloride] | 8.47 | 234 pM |  |  |  |  | 
5 | Cc1ccc(-c2ccccc2C(=O)Nc2ccc(C(=O)N3CCC(F)(F)/C(=C\C#N)c4ccccc43)cc2)cc1 [Compound 22 (a), 4'-[(5-cyanomethylene-4,4-difluoro-2,3,4,5-tetrahydro-1H-1-benzazepin-1-yl)carbonyl]-2-(4methylphenyl)benzanilide] | 8.36 |  |  |  | 9550 pM |  | 
6 | CN(C)CCN(C)C(=O)/C=C1/c2ccccc2N(C(=O)c2ccc(NC(=O)c3ccccc3-c3ccccc3)cc2)CCC1(F)F [Example 15, (Z)-4'-[4,4-difluoro-5-[[N-(2-dimethylaminoethyl)-N-methylcarbonylmethylene]-2,3,4,5-tetrahydro-1H-1-benzazepin-1-yl]carbonyl]-2-phenylbenzanilide hydrochloride] | 9.13 | 162 pM | excellent antagonisms on both V1 and V2 receptors | excellent antagonisms on both V1 and V2 receptors |  |  | 
7 | CCc1nccn1-c1ccccc1C(=O)Nc1ccc(C(=O)N2CCC(F)(F)/C(=C\C(=O)OC)c3ccccc32)cc1 [Example 42, methyl (Z)-[1-[4-[2-(2-ethyl-1H-imidazol-1yl)benzoyl]amino]benzoyl-4,4-difluoro-2,3,4,5-tetrahydro-1H-1-benzazepin-5-ylidene]acetate] | 6.33 | 1150 pM |  |  |  | excellent in V1 selectivity | markedly stronger V1 receptor antagonism than that of OPC-21268
8 | O=C(/C=C1/c2ccccc2N(C(=O)c2ccc(NC(=O)c3ccccc3-c3ccccc3)cc2)CCC1(F)F)NC1CC1 [Example 126] | 8.22 | 288 pM |  |  |  |  | 
9 | CC(C)NC(=O)/C=C1/c2ccccc2N(C(=O)c2ccc(NC(=O)c3ccccc3-c3ccccc3)cc2)CCC1(F)F [Example 125, (Z)-4'-[[4,4-difluoro-5-(N-isopropylcarbamoylmethylene)-2,3,4,5-tetrahydro-1H-1-benzazepin-1-yl]carbonyl]-2-phenylbenzanilide] | 8.08 | 282 pM |  |  |  |  | 
10 | CN(C)C1CCN(C(=O)/C=C2/c3ccccc3N(C(=O)c3ccc(NC(=O)c4cccc(Cl)c4)cc3)CCC2(F)F)CC1.Cl [Example 96, (Z)-3-chloro-4'-[[4,4-difluoro-5-[[(4-dimethylaminopiperidino)carbonyl]methylene]-2,3,4,5-tetrahydro-1H-1-benzazepin-1-yl]carbonyl]benzanilide hydrochloride] | 8.13 | 2000 pM |  |  |  |  | 
11 | CN(C)C1CCN(C(=O)/C=C2/c3ccccc3N(C(=O)c3ccc(NC(=O)c4cccn4C)cc3)CCC2(F)F)CC1 [Example 110, (Z)-N-[4-[[4,4-difluoro-5-[[(4-dimethylaminopiperidino)carbonyl]methylene]-2,3,4,5-tetrahydro-1H-1-benzazepin-1-yl]carbonyl]phenyl]-1-methylpyrrole-2-carboxyamide hydrochloride] | 7.75 |  |  |  | 398 pM |  | 
12 | Cc1ccccc1CC(=O)Nc1ccc(C(=O)N2CCC(F)(F)/C(=C\C(=O)N3CCC(N(C)C)CC3)c3ccccc32)cc1 [Example 106, hydrochloride] | 8.24 | 1120 pM |  |  |  |  | 
13 | CCc1nccn1-c1ccccc1C(=O)Nc1ccc(C(=O)N2CCC(F)(F)/C(=C\C(=O)NC)c3ccccc32)cc1 [Example 104, (Z)-2-(2-ethyl-1H-imidazol-1-yl)-4'-[[4,4-difluoro-5-[(N-methylcarbamoyl)methylene]-2,3,4,5-tetrahydro-1H-1-benzazepin-1-yl]carbonyl]benzanilide] | 6.68 | 977 pM |  |  |  | excellent in V1 selectivity | markedly stronger V1 receptor antagonism than that of OPC-21268
14 | COCCNC(=O)/C=C1/c2ccccc2N(C(=O)c2ccc(NC(=O)c3ccccc3-c3ccccc3)cc2)CCC1(F)F [Example 135, (Z)-4'-[[4,4-difluoro-5-[N-(2-methoxyethyl)carbamoylmethylene]-2,3,4,5-tetrahydro-1H-1-benzazepin-1-yl]carbonyl]-2-phenylbenzanilide] | 8.11 | 195 pM |  |  |  |  | 
15 | Cl.O=C(/C=C1/c2ccccc2N(C(=O)c2ccc(NC(=O)c3ccccc3-c3ccccc3)cc2)CCC1(F)F)NC1CN2CCC1CC2 (racemic) [Example 85, (±)-(Z)-4'-[[4,4-difluoro-5-[[N-(3-quinuclidinyl)carbamoyl]methylene]-2,3,4,5-tetrahydro-1H-1-benzazepin-1-yl]carbonyl]-2-phenylbenzanilide hydrochloride] | 9.97 | 95.5 pM | excellent antagonisms on both V1 and V2 receptors | excellent antagonisms on both V1 and V2 receptors |  |  | 
16 | Cl.O=C(Nc1ccc(C(=O)N2CCC(F)(F)/C(=C\CN3CCCC3)c3ccccc32)cc1)c1ccccc1-c1ccccc1 [Example 81, (Z)-4'-[[4,4-difluoro-5-[2-(1-pyrrolidinyl)ethylidene]-2,3,4,5-tetrahydro-1H-1-benzazepin-1-yl]carbonyl]-2-phenylbenzanilide hydrochloride] | 8.64 | 724 pM |  |  |  |  | 
17 | NC(=O)/C=C1/c2ccccc2N(C(=O)c2ccc(NC(=O)c3ccccc3-c3ccccc3)cc2)CCC1(F)F [Example 121, (Z)-4'-[(5-carbamoylmethylene-4,4-difluoro-2,3,4,5-tetrahydro-1H-1-benzazepin-1-yl]carbonyl]-2-phenylbenzanilide] | 8.59 | 295 pM |  |  |  |  | 
18 | CCc1nccn1-c1ccccc1C(=O)Nc1ccc(C(=O)N2CCC(F)(F)/C(=C\C(N)=O)c3ccccc32)cc1 [Example 103, (Z)-4'-[(5-carbamoylmethylene-4,4-difluoro-2,3,4,5-tetrahydro-1H-1-benzazepin-1-yl]carbonyl]-2-(2-ethyl-1H-imidazol-1-yl)benzanilide] | 6.35 | 2000 pM |  |  |  | excellent in V1 selectivity | markedly stronger V1 receptor antagonism than that of OPC-21268

— US5710150A, “Benzazepine derivative, pharmaceutical composition thereof, and intermediate thereof” (Yamanouchi Pharmaceutical Co., Ltd., priority 1993, dated 1998)
